Source: paper PMC3618987, “From BACE1 Inhibitor to Multifunctionality of Tryptoline and Tryptamine Triazole Derivatives for Alzheimer’s Disease” (Molecules, 2012)
pIC50: −log10 of the molar value.

Columns and labels:
β-Secretase (BACE1) = target: T1, β-Secretase (BACE1) (Homo sapiens, UniProt P56817); assay: β-Secretase inhibition assay (fluorogenic substrate IV); assay type: biochemical; settings: read-out: BACE1 % Inhibition (at 25 µM) (±SEM)
T1 construct: purchased Sino Biological
Procedure: β-Secretase enzyme was reconstituted with 50 mM Tris (pH 7.5), 10% glycerol to yield concentration of 0.5 unit/µL. The enzyme stock solution was diluted with 100 mM sodium acetate buffer (pH 4.5) to 0.01 unit/µL. Thirty microliters of enzyme solution were added to each well that contained 20 µL of 5% DMSO of test compound. Then, fifty microliters of 50 µM β-secretase substrate IV from Calbiochem were added to the reaction plate. […] The assays were run in triplicate.

amyloid-β (1-42) peptide [1] = target: T2, amyloid-β (1-42) peptide (Homo sapiens, UniProt P05067); assay: Amyloid β aggregation assay (ThT fluorescence); assay type: biochemical; settings: Aβ(1-42), 48 h, read-out: Anti-Aβ aggregation % Inhibition (at 100 µM) (±SEM)
T2 construct: Stock solution of amyloid-β (1-42) peptide (Anaspec; 1384 µM in 1% NH4OH); purchased Anaspec
Procedure: Nine microliters amyloid-β solution was added to a greiner transparent 96 well plate. One microliter of each test compounds (1,000 µM in DMSO) were added to each well and mixed gently by tapping. The final concentrations of each compound were 100 µM in 10% DMSO. The reaction plate was incubated in dark at 37 °C for 48 h. After incubation, 200 µL of 5 µM ThT (Sigma) in 50 mM Tris buffer (pH 7.4) was added to each well. The fluorescence was measured at Ex = 446 nm and Em = 490 nm by using SpectraMax Gemini EM^TM [30]. The assays were run in triplicate.

[2] = Fe (II) chelation capacity assay (ferrozine)
Procedure: An aqueous solution of 0.2 mM ferrous sulphate was prepared. Fifty microliters of this solution was added to 96 well plate, then 40 µL of 500 µM of test compounds in 50% DMSO were added to each well followed by DI water to adjust the volume to 150 µL. The mixtures were incubated at room temperature for 10 min. After incubation, 50 µL of 1 mM ferrozine (Sigma) was added to the reaction mixture. The absorbance was measured at 562 nm by using infinite 200 pro^TM, Tecan. EDTA was used as a positive control. Chelation capacity of each compounds were calculated. Compounds having chelating capacity over than 50% were evaluated for stoichiometric ratio of compound: metal.

[3] = Free radical scavenging assay (DPPH)
Procedure: The test samples were prepared in 50% DMSO at 500 µM. Seventy microliters of DPPH solution (500 µM in methanol) was added to 96 well plate. The assay mixture was adjusted to 80 µL volume by methanol. After adjusting the volume, 20 µL of test compounds was added to each well. The reaction plate was incubated at room temperature in dark for 30 min. The absorbance was measured at 517 nm by using infinite 200 pro^TM, Tecan. Ascorbic acid was used as a positive control. Percent inhibition was calculated and compounds showing activity were evaluated for the IC50 values.

amyloid-β (1-42) peptide [4] = target: T2, amyloid-β (1-42) peptide; assay: Amyloid β aggregation assay (ThT fluorescence); assay type: biochemical; settings: Aβ(1-42), read-out: Anti-Aβ aggregation IC50

T2 sequence (P05067 672-713 limits assumed): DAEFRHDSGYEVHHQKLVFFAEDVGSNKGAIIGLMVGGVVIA
T1 sequence (P56817 46-501): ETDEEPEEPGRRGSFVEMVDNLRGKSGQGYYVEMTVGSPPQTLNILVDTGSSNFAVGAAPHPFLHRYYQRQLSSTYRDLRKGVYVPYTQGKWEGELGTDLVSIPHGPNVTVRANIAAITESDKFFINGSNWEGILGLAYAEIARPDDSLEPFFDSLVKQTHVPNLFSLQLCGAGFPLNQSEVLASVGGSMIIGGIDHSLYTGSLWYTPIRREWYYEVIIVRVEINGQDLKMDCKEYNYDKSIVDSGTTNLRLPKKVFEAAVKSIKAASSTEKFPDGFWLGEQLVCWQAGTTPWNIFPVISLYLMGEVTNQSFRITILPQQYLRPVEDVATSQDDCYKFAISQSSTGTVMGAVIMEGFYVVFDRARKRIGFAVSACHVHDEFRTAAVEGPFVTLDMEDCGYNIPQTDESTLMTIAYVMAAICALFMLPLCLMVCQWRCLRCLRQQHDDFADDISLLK

Compound: N[C@@H](Cc1c[nH]c2ccccc12)Cn1cc(CNC(=O)c2cc(O)cc(O)c2)nn1 [Compound 12f, (S)-N-((1-(2-Amino-3-(1H-indol-3-yl)propyl)-1H-1,2,3-triazol-4-yl)methyl)-3,5-dihydroxybenzamide]
- inhibition at 25 µM (β-Secretase (BACE1)): 16.6%
- inhibition at 100 µM (amyloid-β (1-42) peptide [1]): 3.8%
- Fe chelation % Capacity (at 100 µM) (±SEM) [2]: 13.06 (±0.16) %
- DPPH % Inhibition (at 100 µM) (±SEM) [3]: 1.32 (±0.78) %
- melting point: 68 to 70 °C

Compound: COc1cc(/C=C/C(=O)NCc2cn(C[C@@H](N)Cc3c[nH]c4ccccc34)nn2)ccc1O [Compound 12g, (S,E)-N-((1-(2-Amino-3-(1H-indol-3-yl)propyl)-1H-1,2,3-triazol-4-yl)methyl)-3-(4-hydroxy-3-methoxyphenyl)acrylamide]
- inhibition at 25 µM (β-Secretase (BACE1)): 16.2%
- inhibition at 100 µM (amyloid-β (1-42) peptide [1]): 46.1%
- pIC50 [3]: 3.88
- DPPH % Inhibition (at 100 µM) (±SEM) [3]: 40.79 (±0.31) %
- melting point: 118 to 119 °C
- pIC50 (amyloid-β (1-42) peptide [4]): 3.96
